Data on 39 molecules can be found in ChEMBL document CHEMBL3039007, “Structure-based identification of OATP1B1/3 inhibitors” (Mol Pharmacol, 2013).

For data set [1], the target named is T1, Solute carrier organic anion transporter family member 1B1 (Homo sapiens, UniProt Q9Y6L6).
T1 sequence (Q9Y6L6 whole entry): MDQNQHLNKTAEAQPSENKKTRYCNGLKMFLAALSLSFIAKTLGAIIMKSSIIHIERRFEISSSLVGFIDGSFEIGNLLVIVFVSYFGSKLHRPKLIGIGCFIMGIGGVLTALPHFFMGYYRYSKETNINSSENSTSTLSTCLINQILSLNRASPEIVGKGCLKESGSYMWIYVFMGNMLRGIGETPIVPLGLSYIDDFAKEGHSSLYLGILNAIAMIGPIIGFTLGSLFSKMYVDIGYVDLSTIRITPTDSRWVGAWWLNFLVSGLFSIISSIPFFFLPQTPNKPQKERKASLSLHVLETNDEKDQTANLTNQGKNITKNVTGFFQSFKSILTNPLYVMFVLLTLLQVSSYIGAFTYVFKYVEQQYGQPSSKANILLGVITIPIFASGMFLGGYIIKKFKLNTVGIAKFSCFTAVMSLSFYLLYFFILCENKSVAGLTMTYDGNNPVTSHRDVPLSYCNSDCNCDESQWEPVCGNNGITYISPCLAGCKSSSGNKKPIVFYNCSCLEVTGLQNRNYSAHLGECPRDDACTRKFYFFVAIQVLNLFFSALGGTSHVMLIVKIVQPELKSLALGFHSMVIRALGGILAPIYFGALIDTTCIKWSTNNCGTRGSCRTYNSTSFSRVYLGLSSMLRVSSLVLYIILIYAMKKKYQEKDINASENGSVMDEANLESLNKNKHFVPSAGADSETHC
The following applies: chinese hamster, cho, 10 µM.

The target of data set [2] is T2, Solute carrier organic anion transporter family member 1B3 (Homo sapiens, UniProt Q9NPD5).
T2 sequence (Q9NPD5 whole entry): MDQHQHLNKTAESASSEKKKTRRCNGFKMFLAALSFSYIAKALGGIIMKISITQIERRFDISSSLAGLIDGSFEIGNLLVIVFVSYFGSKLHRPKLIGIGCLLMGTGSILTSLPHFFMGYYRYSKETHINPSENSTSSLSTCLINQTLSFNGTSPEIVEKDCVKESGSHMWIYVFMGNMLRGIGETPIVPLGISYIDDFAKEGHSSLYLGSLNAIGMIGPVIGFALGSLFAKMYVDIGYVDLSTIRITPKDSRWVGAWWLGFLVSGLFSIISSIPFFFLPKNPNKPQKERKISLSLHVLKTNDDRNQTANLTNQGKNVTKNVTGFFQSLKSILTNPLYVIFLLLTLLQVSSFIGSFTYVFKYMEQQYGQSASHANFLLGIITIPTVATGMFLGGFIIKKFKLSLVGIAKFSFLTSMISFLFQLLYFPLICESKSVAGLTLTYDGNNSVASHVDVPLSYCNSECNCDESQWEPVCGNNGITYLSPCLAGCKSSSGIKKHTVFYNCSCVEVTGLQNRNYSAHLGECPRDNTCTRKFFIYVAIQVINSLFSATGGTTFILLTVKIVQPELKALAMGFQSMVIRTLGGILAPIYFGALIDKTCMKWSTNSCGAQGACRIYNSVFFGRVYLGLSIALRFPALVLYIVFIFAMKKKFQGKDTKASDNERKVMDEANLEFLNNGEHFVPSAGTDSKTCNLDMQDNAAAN
As to conditions: chinese hamster, cho, 10 µM.

For the molecule `CCN(CC)CCOC(=O)C(c1ccccc1)C1CCCCC1.Cl` (stereo not drawn) [DROFENINE HYDROCHLORIDE], the results for the residual activity in data set [1] and in data set [2] were 99.44% and 112.3%, respectively.
Turning to `OCC(O)CN1CCN(c2ccccc2)CC1` (stereo not drawn) [DROPROPIZINE], the residual activity is 71.05% in data set [1] and 96.03% in data set [2].
Regarding `COc1ccc([C@H]2COc3c(ccc(O)c3OC)C2)c(OC)c1O` [DUARTIN (-)], the residual activity in data set [1] stood at 88.51%; in data set [2] it was 86.99%.
Consider `COc1ccc2c(c1OC)OC[C@@H](c1ccc(OC)c(OC)c1OC)C2` [DUARTIN, DIMETHYL ETHER], for which the residual activity in data set [1] turned out to be 113.2%; in data set [2], 110.8%.
Consider `CCCCOc1ccc(C(=O)CCN2CCCCC2)cc1.Cl` [DYCLONINE HYDROCHLORIDE], for which the figures for the residual activity in data set [1] and in data set [2] were 170.9% and 83.62%, respectively.
In the case of `Cn1c(=O)c2c(ncn2CC(O)CO)n(C)c1=O` (stereo not drawn) [DYPHYLLINE], the residual activity in data set [1] came out at 92.75%; in data set [2], 94.34%.
In the case of `CCOc1ccc2c(c1)C(C)=CC(C)(C)N2` [E324], the residual activity worked out at 108.3% in data set [1] and 119.7% in data set [2].
For `CC1(C)CC[C@]2(C(=O)O)[C@H](O)C[C@]3(C)C(=CC[C@@H]4[C@@]5(C)CC[C@H](O)C(C)(C)[C@@H]5CC[C@]43C)[C@@H]2C1` [ECHINOCYSTIC ACID] the same measures were 69.3% and 30.48%.
Turning to `Clc1ccc(COC(Cn2ccnc2)c2ccc(Cl)cc2Cl)cc1.O=[N+]([O-])O` (stereo not drawn) [ECONAZOLE NITRATE], the residual activity was found to be 146.5% in data set [1] and 127.4% in data set [2].
As to `O=C(O)CN(CCN(CC(=O)O)CC(=O)O)CC(=O)O` [EDETIC ACID], the residual activity is given as 81.77% in data set [1] and 82.24% in data set [2].
Regarding `CCc1cn([C@H]2C[C@H](O)[C@@H](CO)O2)c(=O)[nH]c1=O` [EDOXUDINE], the residual activity was determined as 92.48% in data set [1] and 109.7% in data set [2].
On to `CC[N+](C)(C)c1cccc(O)c1.[Cl-]` [EDROPHONIUM CHLORIDE], for which the residual activity amounted to 79.44% in data set [1] and 93.08% in data set [2].
Take `CCC1(C2=NCCN2)Cc2ccccc2O1.Cl` (stereo not drawn) [EFAROXAN HYDROCHLORIDE]: the residual activity in data set [1] was determined as 80.2%; in data set [2] it was 83.03%.
For `CCCCCCCC/C=C/CCCCCCCCOP(=O)([O-])OCC[N+](C)(C)C` [ELAIDYLPHOSPHOCHOLINE] the same measures were 66.64% and 84.98%.
For `O=c1oc2c(O)c(O)cc3c(=O)oc4c(O)c(O)cc1c4c23` [ELLAGIC ACID] the same measures were 75.25% and 65.47%.
`CCCCCCCCCCCC1=C(O)C(=O)C=C(O)C1=O` [EMBELIN]: the residual activity in data set [1] is reported as 98.02%; in data set [2] it was 94.22%.
Take `O=C(O)c1cc(O)c2c(c1)C(=O)c1cc(O)cc(O)c1C2=O` [EMODIC ACID]: the residual activity came out at 150% in data set [1] and 72.9% in data set [2].
As for `Cc1cc(O)c2c(c1)C(=O)c1cc(O)cc(O)c1C2=O` [EMODIN], the residual activity was determined as 135% in data set [1] and 119.5% in data set [2].
As to `CCOC(=O)[C@H](CCc1ccccc1)N[C@@H](C)C(=O)N1CCC[C@H]1C(=O)O.O=C(O)/C=C\C(=O)O` [ENALAPRIL MALEATE], the residual activity came out at 190.1% in data set [1] and 110.9% in data set [2].
For the molecule `O=C(CC[N+](=O)[O-])OC[C@H]1O[C@@H](O)[C@H](OC(=O)CC[N+](=O)[O-])[C@@H](OC(=O)CC[N+](=O)[O-])[C@@H]1OC(=O)CC[N+](=O)[O-]` [ENDECAPHYLLIN X], the residual activity in data set [1] is on record as 80.29%; in data set [2], 82.04%.
Taken in the same sequence, the figures for `O=S1OCC2C(CO1)C1(Cl)C(Cl)=C(Cl)C2(Cl)C1(Cl)Cl` (stereo not drawn) [ENDOSULFAN] were 111.6% and 117.8%.
Take `ClC1=C(Cl)C2(Cl)C3C4CC(C5OC45)C3C1(Cl)C2(Cl)Cl` (stereo not drawn) [ENDRIN]: the residual activity in data set [1] amounted to 107.3%; in data set [2], 121%.
For the molecule `CC(C)C[C@H](NC(=O)[C@H](Cc1ccccc1)NC(=O)CNC(=O)CNC(=O)[C@@H](N)Cc1ccc(O)cc1)C(=O)O` [ENKEPHALIN], the values for the residual activity in data set [1] and in data set [2] were 84.58% and 87.68%, respectively.
On to `CCn1cc(C(=O)O)c(=O)c2cc(F)c(N3CCNCC3)nc21` [ENOXACIN], for which the residual activity in data set [1] is listed as 111.1%; in data set [2], 89.58%.
Taken in the same sequence, the figures for `C=C[C@@](C)(O)CCC1C(=C)CCC2[C@@](C)(CO)CCC[C@]12C` (stereo partly drawn) [EPI(13)TORULOSOL] were 109% and 115.1%.
For the molecule `Oc1ccc([C@H]2Oc3cc(O)cc(O)c3C[C@H]2O)cc1` [EPIAFZELECHIN (2R,3R)(-)], the residual activity in data set [1] is reported as 48.25%; in data set [2], 26.68%.
Turning to `COc1ccc([C@H]2Oc3cc(OC)cc(OC)c3C[C@H]2O)cc1` [EPIAFZELECHIN TRIMETHYL ETHER], the residual activity in data set [1] came to 79.64%; in data set [2] it was 113.6%.
Taken in the same sequence, the figures for `C[C@]12CC[C@H](O)C[C@@H]1CC[C@@H]1[C@@H]2CC[C@]2(C)C(=O)CC[C@@H]12` [EPIANDROSTERONE] were 55.38% and 91.34%.
Consider `CC(=O)Oc1cc(OC(C)=O)c2c(c1)O[C@H](c1ccc(OC(C)=O)c(OC(C)=O)c1)[C@H](OC(C)=O)C2` [EPICATECHIN PENTAACETATE], for which the values for the residual activity in data set [1] and in data set [2] were 74.79% and 76.08%, respectively.
Turning to `CC(C)CCC[C@@H](C)[C@H]1CC[C@H]2[C@@H]3CC[C@@H]4C[C@H](O)CC[C@]4(C)[C@H]3CC[C@]12C` [EPICOPROSTEROL], the residual activity in data set [1] is 90.49%; in data set [2], 97.38%.
With `O=C(Oc1cc(O)cc2c1C[C@@H](OC(=O)c1cc(O)c(O)c(O)c1)[C@@H](c1cc(O)c(O)c(O)c1)O2)c1cc(O)c(O)c(O)c1` [EPIGALLOCATECHIN 3,5-DIGALLATE], the residual activity in data set [1] turned out to be 55.31%; in data set [2], 82.14%.
With `Oc1cc(O)c2c(c1)O[C@H](c1cc(O)c(O)c(O)c1)[C@H](O)C2` [EPIGALLOCATECHIN], the residual activity in data set [1] turned out to be 101.7%; in data set [2], 96.72%.
Turning to `O=C(O[C@@H]1Cc2c(O)cc(O)cc2O[C@@H]1c1cc(O)c(O)c(O)c1)c1cc(O)c(O)c(O)c1` [EPIGALOCATECHIN GALLATE], the residual activity in data set [1] is 49.04%; in data set [2] it was 45.88%.
On to `C[C@@H]1C(=O)O[C@H]2[C@H]1CC[C@@]1(C)C=CC(=O)[C@@]3(C)O[C@@]213` [EPOXY (4,5alpha)-4,5-DIHYDROSANTONIN], for which the results for the residual activity in data set [1] and in data set [2] were 91.53% and 88.69%, respectively.
As to `C[C@]12CC[C@H]3C(=CCc4cc(O)ccc43)[C@@H]1CCC2=O` [EQUILIN], the results for the residual activity in data set [1] and in data set [2] were 88.55% and 96.05%, respectively.
For the molecule `C[C@@H](CO)NC(=O)[C@@H]1C=C2c3cccc4[nH]cc(c34)C[C@H]2N(C)C1.O=C(O)/C=C\C(=O)O` [ERGONOVINE MALEATE], the residual activity in data set [1] is 69.31%; in data set [2] it was 84.31%.
Take `CC(C)[C@@H](C)/C=C/[C@@H](C)[C@H]1CC[C@H]2C3=CCC4CC(=O)CC[C@]4(C)[C@H]3CC[C@]12C` (stereo partly drawn) [ERGOSTA-7,22-DIEN-3-ONE]: the residual activity in data set [1] was 71.12%; in data set [2] it was 94.39%.
On to `CC(C)[C@@H](C)/C=C/[C@@H](C)[C@H]1CC[C@H]2C3=CC=C4C[C@@H](O)CC[C@]4(C)[C@H]3CC[C@]12C` [ERGOSTEROL], for which the results for the residual activity in data set [1] and in data set [2] were 31.68% and 52.34%, respectively.
On to `CS(=O)(=O)CCCCN=C=S` [ERYSOLIN], for which the residual activity in data set [1] came to 108.6%; in data set [2] it was 72.62%.

For orientation: residual activity means the signal under treatment as a percentage of the control signal.
